Where a name gives a salt, the structure may show the parent alone.

The nature of data set [1]: Chemical stability by HPLC. The class given is physicochemical. Conditions: 45% RH for two months.
Data set [2] in a line: 12 Month Stability Study. The class given is physicochemical. The arrangement: Water: unit not given beside the values. Conditions: for decomposition on storage: 25° C.
The nature of data set [3]: Chemical stability by HPLC. The class given is physicochemical. How it is done: In addition, the solutions before spraying and the spray dried product were analyzed for purity by HPLC using the following method. A Waters Symmetry C18 (3.0×150 mm, 3.5 um) column was used. […] Column temperature was 60° C., and the detection wavelength was 210 nm. The injection volume was 15 μL; flow rate was 1.0 mL/minute for a run time of 70 minutes. The gradient was as follows: Chemical Stability. Chemical stability was determined using HPLC. […] The chemical stability of the tartrate salt and the free base was also determined after one and three months at 25° C., 40° C. and 60° C.

Data set [4] can be described thus: Physical stability in humidity chambers.
From the text: Physical Stability in Humidity Chambers. […] Samples were weighed hourly at first, and then on daily intervals.
Data set [5] in a line: Salt preparation: isolation of solid salts of the pyrrolidine compound. The class given is physicochemical. Conditions: acid plus free base in IPA, filtration, MTBE.
The mark [6] stands for this setting: 12 months, T = 25° C., RH = 60%.
Where [7] appears, read: 3 months at 40° C., listed as Tartrate.

On to `O=C(CN[C@@H]1CCNC1)N1CCC[C@H]1B(O)O` [L-tartrate salt, (2R)-1-{7-[(9R)-pyrrolidin-9-ylamino]-acetyl}-pyrrolidine-2-boronic acid], for which the “solubility in water and alcohols” value was > 2000 mg/mL. Also, in data set [1], the “change in the purity (HPLC)” value is “Little or no change”. In data set [2] (1 month, T = 5° C., RH = N/A), the “Assay (HPLC)” value is reported as 105.7, the “Purity (HPLC)” value amounted to 98.1 and the Water stood at 9.8. Also, in data set [2] (1 month, T = 25° C., RH = 60%), the “Assay (HPLC)” value is reported as 105.7, the “Purity (HPLC)” value turned out to be 98.1 and the Water worked out at 9.9. For the same compound, in data set [2] (1 month, T = 40° C., RH = 75%), the “Assay (HPLC)” value is 106.0, the “Purity (HPLC)” value is reported as 98.2 and the Water is 10.0. Moreover, in data set [2] (3 months, T = 5° C., RH = N/A), the “Assay (HPLC)” value was determined as 106.2, the “Purity (HPLC)” value is 98.0 and the Water was 9.6. Also, in data set [2] (3 months, T = 25° C., RH = 60%), the “Assay (HPLC)” value stood at 106.7, the “Purity (HPLC)” value was found to be 98.1 and the Water is 9.4. Moreover, in data set [2] (3 months, T = 40° C., RH = 75%), the “Assay (HPLC)” value was 105.3, the “Purity (HPLC)” value was found to be 97.9 and the Water is listed as 9.2. Further, the decomposition on storage entry in data set [2] (6 months at 75% RH) is listed as “no detectable decomposition”. Besides, in data set [2] (6 months, T = 5° C., RH = N/A), the “Assay (HPLC)” value turned out to be 104.6, the “Purity (HPLC)” value was 97.9 and the Water is on record as 8.9. For the same compound, in data set [2] (6 months, T = 25° C., RH = 60%), the “Assay (HPLC)” value amounted to 105.9, the “Purity (HPLC)” value is given as 97.9 and the Water came to 9.3. Also, in data set [2] (6 months, T = 40° C., RH = 75%), the “Assay (HPLC)” value came out at 105.6, the “Purity (HPLC)” value is reported as 97.7 and the Water was found to be 9.5. Besides, in data set [2] (9 months, T = 5° C., RH = N/A), the “Assay (HPLC)” value is reported as 106.7, the “Purity (HPLC)” value came to 97.8 and the Water is 9.1. Further, in data set [2] (9 months, T = 25° C., RH = 60%), the “Assay (HPLC)” value was found to be 107.3, the “Purity (HPLC)” value is 97.8 and the Water came out at 9.0. In addition, the decomposition on storage result in data set [2] (12 months at 60% RH) is given as “no detectable decomposition”. Further, in data set [2] (12 months, T = 5° C., RH = N/A), the “Assay (HPLC)” value turned out to be 107.8, the “Purity (HPLC)” value was 98.0 and the Water was determined as 9.3. In addition, in data set [2] (setting [6]), the “Assay (HPLC)” value turned out to be 107.7, the “Purity (HPLC)” value is on record as 97.9 and the Water is 9.3. Also, the “change in chemical purity” value in data set [2] (any of the conditions tested, 12 month study) was “substantially no change”. In addition, in data set [2] (time = 0), the “Assay (HPLC)” value is reported as 105.1, the “Purity (HPLC)” value is listed as 98.3 and the Water worked out at 10.4. Also, in data set [3] (1 month at 60° C.), the “Assay (%)” value turned out to be 100% and the “Total Impurities (%)” value is given as 5.8%. In addition, in data set [3] (3 months at 25° C.), the “Assay (%)” value came to 99% and the “Total Impurities (%)” value turned out to be 5.7%. In data set [3] (setting [7]), the “Assay (%)” value is reported as 97% and the “Total Impurities (%)” value was 5.9%. In data set [3] (3 months at 60° C.), the “Assay (%)” value is on record as 92% and the “Total Impurities (%)” value worked out at 7.4%. Moreover, in data set [3] (Initial, listed as Tartrate), the “Assay (%)” value is listed as 99% and the “Total Impurities (%)” value is reported as 6.5%. The hygroscopicity entry in data set [4] was “moderately hygroscopic”. The “processability of the solid” value in data set [4] (63% relative humidity and room temperature for two months) is “remained a processable solid”. For the same compound, in data set [4] (ambient conditions), the “physical behaviour of the solid at ambient conditions” value is reported as “remains a processable solid”. Moreover, the flow properties entry in data set [4] (open container, room temperature, 45% RH, two months) is on record as “maintained good flow properties”. Further, the “processability of the solid” value in data set [4] (several days at ambient temperature, relative humidity of 75%) is “remained a processable solid”.
For the compound `O=C(O)[C@@H](O)[C@H](O)C(=O)O` [D-tartrate], in data set [5] (listed as D-Tartaric Acid), the “Comments (outcome of salt preparation)” value is listed as “Good filterable solid”.
For the compound citrate, in data set [5], the “Comments (outcome of salt preparation)” value is reported as “Good filterable solid”. Further, the “stability at 63% RH” value in data set [4] (63% RH) is given as “stable”. Besides, the “stability when submitted to 75% relative humidity” value in data set [4] (75% RH) is listed as “not stable”.
For the compound `O=C(CN[C@@H]1CCNC1)N1CCC[C@H]1B(O)O` [Free Base, (2R)-1-{7-[(9R)-pyrrolidin-9-ylamino]-acetyl}-pyrrolidine-2-boronic acid], the “Assay (%)” value is recorded as 97% in data set [3] (1 month at 40° C.), 50% in data set [3] (3 months at 40° C.) and 96% in data set [3] (Initial). Moreover, the results for the “Total Impurities (%)” value in data set [3] (1 month at 40° C.), in data set [3] (3 months at 40° C.) and in data set [3] (Initial) were 15.4%, 29.6% and 7.6%, respectively.
